# Values quoted from earlier work as cited in patent US10869938B2, “Magnetic resonance imaging” (1C TARGETS AS, priority 2007, dated 2020).
# Where two headings read alike, the source gives them in different places.
# Test system: healthy myocardial cells
# Settings: healthy individuals
smiles,measurement,setting,value
"Cc1ncc(COP(=O)(O)O)c(CN(CCN(CC(=O)[O-])Cc2c(COP(=O)(O)O)cnc(C)c2O)CC(=O)[O-])c1O.[Mn+2] [MnDPDP, manganese (II) chelate of N,N′-bis-(pyridoxal-5-phosphate)-ethylenediamine-N,N′-diacetic acid]",manganese tissue concentration versus time curve,5 minute infusion,biphasic curve
same,manganese tissue concentration versus time curve,30 minute infusion,increased steadily
